pIC50: −log10 of the molar value. Where a name gives a salt, the structure may show the parent alone.
Experiments:
PDE10A (human) = biological target: T1, PDE10A (human) (Homo sapiens, UniProt Q9Y233); experiment: Measurement of PDE activity (HTRF cAMP kit), human PDE10A; type: biochemical; conditions: PDE enzymatic reaction, substrate 20 nM for PDE10, 60 minutes at 29 C
T1 construct: purchased BPS Bioscience
Method in brief: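 Recombinant human PDE10A (10–250 pM range across PDEs) with 20 nM cAMP substrate in 20 mM Tris-HCl pH 7.5, 10 mM MgCl2, 0.1% BSA, compound pre-mixed with enzyme. Ran 60 min at 29 °C. Remaining cAMP read by HTRF, converted to % of uninhibited activity, and IC50 fitted.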

[1] = Determination of the microsomal half-life, rat liver microsomes; conditions: rat, liver microsomes, pH 7.4
[2] = Determination of the microsomal half-life, human liver microsomes; conditions: human, liver microsomes, pH 7.4
Description: The test substances were incubated in a concentration of 0.5 μM as follows:
0.5 μM test substance are preincubated together with liver microsomes from different species (from rat, human or other species) (0.25 mg of microsomal protein/10 in 0.05 M potassium phosphate buffer of pH 7.4 in microtiter plates at 37° C. for 5 min. The reaction is started by adding NADPH (1 mg/mL). After 0, 5, 10, 15, 20 and 30 min., 50 μl aliquots are removed, and the reaction is immediately stopped and cooled with the same volume of acetonitrile. The samples are frozen until analyzed. The remaining concentration of undegraded test substance is determined by MSMS. The half-life (T½) is determined from the gradient of the signal of test substance/unit time plot, it being possible to calculate the half-life of the test substance, assuming first order kinetics, from the decrease in the concentration of the compound with time. The microsomal clearance (mCl) is calculated from mCl=ln 2/T½/(content of microsomal protein in mg/ml)×1000 [ml/min/mg]

T1 sequence (Q9Y233 whole entry): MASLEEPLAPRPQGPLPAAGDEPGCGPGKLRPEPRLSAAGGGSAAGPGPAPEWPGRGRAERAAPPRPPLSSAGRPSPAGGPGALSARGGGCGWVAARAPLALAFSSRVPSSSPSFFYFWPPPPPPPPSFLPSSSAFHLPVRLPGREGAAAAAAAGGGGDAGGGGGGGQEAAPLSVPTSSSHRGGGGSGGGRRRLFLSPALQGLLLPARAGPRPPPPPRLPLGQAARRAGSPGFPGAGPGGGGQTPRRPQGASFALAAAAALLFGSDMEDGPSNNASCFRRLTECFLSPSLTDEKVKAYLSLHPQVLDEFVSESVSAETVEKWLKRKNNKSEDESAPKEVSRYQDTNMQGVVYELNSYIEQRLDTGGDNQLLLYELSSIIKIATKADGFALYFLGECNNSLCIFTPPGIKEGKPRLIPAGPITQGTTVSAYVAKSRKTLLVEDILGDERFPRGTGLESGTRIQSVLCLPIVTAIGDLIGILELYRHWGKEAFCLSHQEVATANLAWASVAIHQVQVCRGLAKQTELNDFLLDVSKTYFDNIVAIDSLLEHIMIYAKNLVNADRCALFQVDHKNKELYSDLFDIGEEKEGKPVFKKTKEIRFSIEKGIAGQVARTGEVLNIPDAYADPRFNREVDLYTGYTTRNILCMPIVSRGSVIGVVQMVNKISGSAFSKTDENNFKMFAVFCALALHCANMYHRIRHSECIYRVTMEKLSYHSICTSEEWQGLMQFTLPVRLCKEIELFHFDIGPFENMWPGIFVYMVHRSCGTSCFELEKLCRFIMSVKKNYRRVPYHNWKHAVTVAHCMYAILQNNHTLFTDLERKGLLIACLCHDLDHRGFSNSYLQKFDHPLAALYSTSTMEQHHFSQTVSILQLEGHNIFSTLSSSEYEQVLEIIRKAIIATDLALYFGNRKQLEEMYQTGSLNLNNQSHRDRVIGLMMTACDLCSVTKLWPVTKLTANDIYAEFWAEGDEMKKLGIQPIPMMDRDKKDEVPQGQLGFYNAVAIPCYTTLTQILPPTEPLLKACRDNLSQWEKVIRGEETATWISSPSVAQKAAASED

Row | pIC50 (PDE10A (human)) | microsomal CLint at 0.5 μM [1] | microsomal CLint at 0.5 μM [2] | SMILES
1 | > 7.00 | 100 to 220 µL/min/mg | < 100 µL/min/mg | COc1ccc(-c2ccncc2)c2c1C(=O)N(CCc1nc3ccccc3s1)C2 [compound 396, 2-[2-(1,3-Benzothiazol-2-yl)ethyl]-7-methoxy-4-(4-pyridyl)isoindolin-1-one]
2 | 6.70 to 7.00 | < 100 µL/min/mg | < 100 µL/min/mg | Cn1nccc1-c1ccnc2c1C(=O)N(CCc1nc3ccccc3s1)C2 [compound 432, 6-[2-(1,3-Benzothiazol-2-yl)ethyl]-4-(2-methylpyrazol-3-yl)-7H-pyrrolo[3,4-b]pyridin-5-one trifluoroacetate]
3 | > 7.00 | < 100 µL/min/mg | < 100 µL/min/mg | O=C1c2c(N3CCOCC3)ccnc2CN1CCc1nc2ccccc2s1 [Example 377, 6-(2-Benzothiazol-2-yl-ethyl)-4-morpholin-4-yl-6,7-dihydro-pyrrolo[3,4-b]pyridin-5-one]
4 | > 7.00 | < 100 µL/min/mg | < 100 µL/min/mg | O=C1c2c(OCF)ccc(-c3cncnc3)c2C(=O)N1CCc1cn2ccccc2n1 [compound 545, 4-(Fluoromethoxy)-2-(2-imidazo[1,2-a]pyridin-2-ylethyl)-7-pyrimidin-5-yl-isoindoline-1,3-dione]
5 | 6.70 to 7.00 | < 100 µL/min/mg | < 100 µL/min/mg | O=C1c2c(cccc2N2CCOCC2)CN1CCc1cnc2ccccc2n1 [compound 482, 7-Morpholino-2-(2-quinoxalin-2-ylethyl)isoindolin-1-one]
6 | > 7.00 | < 100 µL/min/mg | < 100 µL/min/mg | Cn1c(CCN2Cc3cccc(N4CCOCC4)c3C2=O)nc2ccccc21 [Example 153, 2-[2-(1-Methyl-1H-benzoimidazol-2-yl)-ethyl]-7-morpholin-4-yl-2,3-dihydro-isoindol-1-one]
7 | 6.30 to 6.70 | > 220 µL/min/mg | 100 to 220 µL/min/mg | CCOc1ncc(-c2cccc3c2CN(CCc2ccc4ccccc4n2)C3=O)cn1 [Example 343, 4-(2-Ethoxy-pyrimidin-5-yl)-2-(2-quinolin-2-yl-ethyl)-2,3-dihydro-isoindol-1-one]
8 | > 7.00 | 100 to 220 µL/min/mg | < 100 µL/min/mg | O=C1c2cccc(-c3ccncc3)c2CN1CCc1cn2ccccc2n1 [Example 316, 2-(2-Imidazo[1,2-a]pyridin-2-yl-ethyl)-4-pyridin-4-yl-2,3-dihydro-isoindol-1-one]
9 | > 7.00 | 100 to 220 µL/min/mg | < 100 µL/min/mg | O=C1c2c(-c3ccncc3)ccnc2CN1CCc1nc2ccc(Cl)cc2s1 [compound 403, 6-[2-(6-Chloro-1,3-benzothiazol-2-yl)ethyl]-4-(4-pyridyl)-7H-pyrrolo[3,4-b]pyridin-5-one]
10 | > 7.00 | > 220 µL/min/mg | 100 to 220 µL/min/mg | O=C1c2cccc(N3CCS(=O)(=O)CC3)c2C(=O)N1CCc1ccc2ccccc2n1 [Example 250, 4-(1,1-Dioxothiomorpholin-4-yl)-2-(2-quinolin-2-yl-ethyl)-isoindole-1,3-dione]
11 | > 7.00 | < 100 µL/min/mg | 100 to 220 µL/min/mg | O=C1c2c(cccc2N2CCOCC2)CN1CCc1ccc2cc(F)ccc2n1 [Example 115, 2-[2-(6-Fluoro-quinolin-2-yl)-ethyl]-7-morpholin-4-yl-2,3-dihydro-isoindol-1-one trifluoroacetate]
12 | > 7.00 | 100 to 220 µL/min/mg | 100 to 220 µL/min/mg | O=C1Cc2ccc(-c3cccc4c3C(=O)N(CCc3ccc5ccccc5n3)C4)cc2N1 [Example 96, 6-[3-Oxo-2-(2-quinolin-2-yl-ethyl)-2,3-dihydro-1H-isoindol-4-yl]-1,3-dihydro-indol-2-one]
13 | > 7.00 | < 100 µL/min/mg | < 100 µL/min/mg | Cn1c(CCN2Cc3nccc(-c4cncnc4)c3C2=O)nc2ccccc21 [Example 364, 6-[2-(1-Methyl-1H-benzoimidazol-2-yl)-ethyl]-4-pyrimidin-5-yl-6,7-dihydro-pyrrolo[3,4-b]pyridin-5-one]
14 | 6.70 to 7.00 | 100 to 220 µL/min/mg | 100 to 220 µL/min/mg | Cc1cnc(CCN2Cc3nccc(-c4ccncc4)c3C2=O)c(C)c1 [compound 473, 6-[2-(3,5-Dimethyl-2-pyridyl)ethyl]-4-(4-pyridyl)-7H-pyrrolo[3,4-b]pyridin-5-one]
15 | > 7.00 | 100 to 220 µL/min/mg | > 220 µL/min/mg | Cc1ncccc1COc1cccc2c1C(=O)N(CCc1ccc3ccccc3n1)C2 [Example 179, 7-(2-Methyl-pyridin-3-ylmethoxy)-2-(2-quinolin-2-yl-ethyl)-2,3-dihydro-isoindol-1-one]
16 | > 7.00 | < 100 µL/min/mg | < 100 µL/min/mg | O=C1c2c(-c3cncnc3)ccnc2CN1CCc1cn2ccccc2n1 [Example 256, 6-(2-Imidazo[1,2-a]pyridin-2-yl-ethyl)-4-pyrimidin-5-yl-6,7-dihydro-pyrrolo[3,4-b]pyridin-5-one]
17 | > 7.00 | 100 to 220 µL/min/mg | < 100 µL/min/mg | Cc1ncccc1-c1cccc2c1C(=O)N(CCc1cn3ccccc3n1)C2 [Example 240, 2-(2-Imidazo[1,2-a]pyridin-2-yl-ethyl)-7-(2-methyl-pyridin-3-yl)-2,3-dihydro-isoindol-1-one]
18 | 6.70 to 7.00 | > 220 µL/min/mg | < 100 µL/min/mg | O=C1c2cccc(-c3ccncc3)c2CN1CCc1nc2ccccc2s1 [compound 431, 2-[2-(1,3-Benzothiazol-2-yl)ethyl]-4-(4-pyridyl)isoindolin-1-one]
19 | 6.70 to 7.00 | < 100 µL/min/mg | < 100 µL/min/mg | Cn1nccc1-c1ccnc2c1C(=O)N(CCc1cn3ccccc3n1)C2 [Example 255, 6-(2-Imidazo[1,2-a]pyridin-2-yl-ethyl)-4-(2-methyl-2H-pyrazol-3-yl)-6,7-dihydro-pyrrolo[3,4-b]pyridin-5-one]
20 | > 7.00 | < 100 µL/min/mg | < 100 µL/min/mg | O=C1Cc2ccc(-c3ccnc4c3C(=O)N(CCc3ccc5ccccc5n3)C4)cc2N1 [Example 165, 4-(2-oxo-2,3-dihydro-1H-indol-6-yl)-6-(2-quinolin-2-yl-ethyl)-6,7-dihydro-pyrrolo[3,4-b]pyridin-5-one]
21 | > 7.00 | 100 to 220 µL/min/mg | < 100 µL/min/mg | O=C1c2c(N3CCOCC3)ccnc2CN1CCc1nc(C2CC2)cs1 [compound 518, 6-[2-(4-Cyclopropylthiazol-2-yl)ethyl]-4-morpholino-7H-pyrrolo[3,4-b]pyridin-5-one]
22 | > 7.00 | < 100 µL/min/mg | < 100 µL/min/mg | COc1ccc(-c2ccnn2C)c2c1C(=O)N(CCc1cn3ccccc3n1)C2 [compound 464, 2-(2-Imidazo[1,2-a]pyridin-2-yl-ethyl)-7-methoxy-4-(2-methyl-2H-pyrazol-3-yl)-2,3-dihydro-isoindol-1-one trifluoroacetate]
23 | > 7.00 | < 100 µL/min/mg | < 100 µL/min/mg | Cc1ccc2c(c1)nc(CCN1Cc3nccc(NC4COC4)c3C1=O)n2C [compound 416, 6-[2-(1,5-Dimethyl-1H-benzoimidazol-2-yl)-ethyl]-4-(oxetan-3-ylamino)-6,7-dihydro-pyrrolo[3,4-b]pyridin-5-one]
24 | > 7.00 | < 100 µL/min/mg | > 220 µL/min/mg | COc1ccc(-c2ccncc2)c2c1CN(CCc1nc3ccccc3n1C)C2=O [Example 370, 4-Methoxy-2-[2-(1-methyl-1H-benzoimidazol-2-yl)-ethyl]-7-pyridin-4-yl-2,3-dihydro-isoindol-1-one]
25 | > 7.00 | 100 to 220 µL/min/mg | 100 to 220 µL/min/mg | O=C1c2c(-c3cccnc3)ccnc2CN1CCc1ccc2ccccc2n1 [Example 329, 4-Pyridin-3-yl-6-(2-quinolin-2-yl-ethyl)-6,7-dihydro-pyrrolo[3,4-b]pyridin-5-one]
26 | > 7.00 | 100 to 220 µL/min/mg | > 220 µL/min/mg | COc1ccc(-c2cccnc2)c2c1CN(CCc1ccc3ccccc3n1)C2=O [Example 185, 4-Methoxy-7-pyridin-3-yl-2-(2-quinolin-2-yl-ethyl)-2,3-dihydro-isoindol-1-one trifluoroacetate]
27 | > 7.00 | < 100 µL/min/mg | < 100 µL/min/mg | COc1cccc(CCN2Cc3nccc(N4CCOCC4)c3C2=O)n1 [compound 483, 6-[2-(6-Methoxy-2-pyridyl)ethyl]-4-morpholino-7H-pyrrolo[3,4-b]pyridin-5-one]
28 | > 7.00 | 100 to 220 µL/min/mg | 100 to 220 µL/min/mg | O=C1c2c(N3CCC4(COC4)C3)ccnc2CN1CCc1ccc2ccccc2n1 [Example 257, 4-(2-Oxa-6-aza-spiro[3.4]oct-6-yl)-6-(2-quinolin-2-yl-ethyl)-6,7-dihydro-pyrrolo[3,4-b]pyridin-5-one]
29 | > 7.00 | 100 to 220 µL/min/mg | 100 to 220 µL/min/mg | COc1ccc(-c2ccc(OC)c3c2CN(CCc2cn4ccccc4n2)C3=O)cc1 [compound 457, 2-(2-Imidazo[1,2-a]pyridin-2-yl-ethyl)-7-methoxy-4-(4-methoxy-phenyl)-2,3-dihydro-isoindol-1-one trifluoroacetate]
30 | > 7.00 | 100 to 220 µL/min/mg | 100 to 220 µL/min/mg | O=C1c2c(cncc2-c2ccncc2)CN1CCc1ccc2ccccc2n1 [Example 2, 7-Pyridin-4-yl-2-(2-quinolin-2-yl-ethyl)-2,3-dihydro-pyrrolo[3,4-c]pyridin-1-one]
